Laboratory results taken from patent US20240050431A1, “NEUROENDOCRINE DIFFERENTIATION IN IMIPRIDONE CANCER TREATMENT” (BROWN UNIVERSITY, priority 2022, published 2024).

Assays:
PC3 = assay: CellTiter-Glo (CTG) viability assay, PC3; type: cell-based; conditions: Homo sapiens, PC-3, 72 h
DU145 [1] = assay: Protein expression of TRAIL pathway proteins, DU145; type: cell-based; conditions: DU145 treated with ONC201 at IC50; 12, 24 and 48 hours
Text: FIGS. 2A-2C provide images showing NED marker expression in PC and SCLC.

22RV1 = assay: Protein expression of TRAIL pathway proteins, 22RV1; type: cell-based; conditions: 22RV1 treated with ONC201 at IC50; 12, 24 and 48 hours
[2] = test system: tumor cell lines (n=6) from prostate and small cell lung cancer tissues; assay: CellTiter-Glo (CTG) viability assay, panel of tumor cell lines; conditions: 6 PC and SCLC cell lines; varying drug concentrations, 72 hours
LNCaP = assay: CellTiter-Glo (CTG) viability assay, LNCaP; type: cell-based; conditions: Homo sapiens, 72 h
DU145 [3] = assay: CellTiter-Glo (CTG) viability assay, DU145; type: cell-based; conditions: Homo sapiens, DU-145, 72 h

Cc1ccccc1CN1C(=O)C2=C(CCN(Cc3ccccc3)C2)N2CCN=C12 [ONC201]
IC50 (PC3): 3.02 µM
ATF4 protein expression (DU145 [1]): upregulation of ATF4 ISR pathway
CLpX protein expression (DU145 [1]): decreased CLpX expression
ATF4 protein expression (22RV1): upregulation of ATF4 ISR pathway
CLpX protein expression (22RV1): decreased CLpX expression
Sensitivity and cytotoxicity (viability) [2]: shows sensitivity and cytotoxicity to tumor cell lines
IC50 (LNCaP): 1.33 µM
IC50 (DU145 [3]): 3.11 µM
